Columns and labels:
Hif-1 alpha = experiment: Inhibition of Hif-1 alpha leading to CTGF in vitro
Text: Fructose-1,6-bisphosphate (FBP) is an intermediate in glycolysis which, if provided to cells could allow them to bypass two ATP-requiring steps for energy production. […] M6P is known to isomerize to fructose-6-phosphate (F6P), an intermediate of glycolysis in the step prior to FBP (FIG. 1). Therefore, one might hypothesize that treatment with M6P may decrease production of CTGF by decreasing the need for substrate-level phosphorylation, which would be vital in hypoxic conditions. In this regard, the present inventors have shown that […] produces the inhibition of Hif-1 alpha leading to CTGF in vitro. Alternatively, latent TGF-β is activated through its binding with the M6P/IGFII receptor (Ghahary, Tredget et al. 1999). Competitive inhibition of the activation of TGF-β through treatment with M6P is considered another method by which M6P may inhibit fibrosis. It is thought that M6P may have more potential for reducing fibrosis than FBP because its mechanism of action is not dependent upon a hypoxic environment.

CTGF = settings: cells under hypoxic conditions; Haung, Adah et al. 2009; cited from earlier work
[1] = test system: human dermal fibroblast and keratinocyte; settings: Clavel, Barragan-Montero et al. 2005; cited from earlier work
MRC-5 fibroblast cells = experiment: In vitro fibroblast proliferation/viability with M6P and TGF-β1; type: cell-based
Text: FIGS. 8A-B show images illustrating that M6P competes with TGFβ. (A) Use of MRC-5 fibroblast cells in an in vitro assessment of concentration effects of TGFβ and M6P as well as effectiveness of M6P to block the proliferative effects of TGFβ. (B) Schematic showing potential mechanism of M6P and TGFβ competing for the same M6P receptor that leads to increase gene regulation.

human tenocytes = settings: in vitro; Wong, Tang et al. 2003; cited from earlier work
digital flexor tendons = settings: three weeks after operation; vs operated controls; cited from earlier work

Q: Which “inhibition of Hif-1 alpha leading to CTGF” value (Hif-1 alpha) does the source give for `O=C(CO)[C@@H](O)[C@H](O)[C@H](O)COP(=O)(O)O` [F6P, fructose 6 phosphate] here?
A: inhibition

Q: Which “production of CTGF” value (CTGF) does the source give for `O=C(COP(=O)(O)O)[C@@H](O)[C@H](O)[C@H](O)COP(=O)(O)O` [FBP, Fructose-1,6-bisphosphate] here?
A: decreases production of CTGF to near control conditions

Q: Which inhibition of proliferation [1] does the source give for `O=C[C@@H](O)[C@@H](O)[C@H](O)[C@H](O)COP(=O)(O)O` [M6P, mannose 6 phosphate] here?
A: potent inhibitor

Q: And the “cell proliferation of fibroblast cells” value (MRC-5 fibroblast cells; 0.05 μM M6P)?
A: enhance cell proliferation

Q: And the “toxic effect on fibroblast cells” value (MRC-5 fibroblast cells; 0.05 μM M6P)?
A: without evidence of a toxic effect

Q: And the TGF-β1-induced proliferation (MRC-5 fibroblast cells; M6P added along with TGF-β1)?
A: increased proliferation was eliminated

Q: With `C[C@@H]1C[C@H]2[C@@H]3CCC4=CC(=O)C=C[C@]4(C)[C@@]3(F)[C@@H](O)C[C@]2(C)[C@@]1(O)C(=O)CO` [dexamethasone] as the molecule, how does the “tenocyte viability, mitotic activity and collagen production” value (human tenocytes) read?
A: negative effects

Q: Which cell proliferation (MRC-5 fibroblast cells; TGF-β1 added at 8 pM) does the source give for “TGF-β1: TGF-β1 growth factor added to fibroblast cells [reference compound]” here?
A: enhanced cell proliferation

Q: What about the “toxicity to the cells” value (MRC-5 fibroblast cells; TGF-β1 at the higher doses) of the same molecule?
A: toxic

B1: PDGF-BB: platelet-derived growth factor-BB, controlled release from fibrin-based delivery system (protein, UniProt P01127 82-190, looked up)
Platelet-derived growth …: SLGSLTIAEPAMIAECKTRTEVFEISRRLIDRTNANFLVWPPCVEVQRCSGCCNNRNVQCRPTQVQLRPVQVRKIEIVRKKPIFKKATVTLEDHLACKCETVAAARPVT
Q: Which “range of motion (ROM)” value (digital flexor tendons) does the source give for B1 here?
A: significantly greater ROM

Source: patent publication US20250186652A1, “ARTICLES AND METHODS FOR IMPROVED TISSUE HEALING” (UNIVERSITY OF MISSISSIPPI MEDICAL CENTER, priority 2022, published 2025)
